Test results as given in ChEMBL document CHEMBL1287803, “Synthesis of 4β-N-polyaromatic substituted podophyllotoxins: DNA topoisomerase inhibition, anticancer and apoptosis-inducing activities” (Bioorg Med Chem, 2010).
The source made the active and inactive calls. The rule behind the calls is not given here.

What was measured:
PC-3 = assay: Anticancer activity against human PC3 cells assessed as cell viability after 48 hrs by SRB assay; format: functional, cell-based; settings: PC-3, 48 h
HCT-15 = assay: Anticancer activity against human HCT15 cells assessed as cell viability after 48 hrs by SRB assay; format: functional, cell-based; settings: HCT-15, 48 h
A549 = assay: Anticancer activity against human A549 cells assessed as cell viability after 48 hrs by SRB assay; format: functional, cell-based; settings: A549, 48 h
IMR-32 = assay: Anticancer activity against human IMR32 cells assessed as cell viability after 48 hrs by SRB assay; format: functional, cell-based; settings: IMR-32, 48 h
HEp-2 = assay: Anticancer activity against human Hep2 cells assessed as cell viability after 48 hrs by SRB assay; format: functional, cell-based; settings: HEp-2, 48 h
DU-145 = assay: Anticancer activity against human DU145 cells assessed as cell viability after 48 hrs by SRB assay; format: functional, cell-based; settings: DU-145, 48 h
[1] = Anticancer activity against human 502713 cells assessed as cell viability after 48 hrs by SRB assay; format: functional, cell-based; settings: Homo sapiens, 502713, 48 h
[2] = Inhibition of DNA topoisomerase 2 assessed as inhibition of relaxation of supercoiled pBR322 plasmid DNA at 10 to 500 uM by gel electrophoresis
[3] = Inhibition of DNA topoisomerase 2 assessed as inhibition of relaxation of supercoiled pBR322 plasmid DNA at 1 mM by gel electrophoresis
MOLT-4 [4] = assay: Cell cycle arrest in human MOLT4 cells assessed as accumulation at sub G1 phase at 0.5 uM after 24 hrs using propidium iodide staining by flow cytometry; format: functional, cell-based
MOLT-4 [5] = assay: Induction of apoptosis in human MOLT4 cells assessed as DNA fragmentation at 0.5 uM after 24 hrs by agarose gel electrophoresis; format: functional, cell-based
MOLT-4 [6] = assay: Cell cycle arrest in human MOLT4 cells assessed as accumulation at sub G1 phase at 1 uM after 24 hrs using propidium iodide staining by flow cytometry; format: functional, cell-based
MOLT-4 [7] = assay: Induction of apoptosis in human MOLT4 cells assessed as DNA fragmentation at 1 uM after 24 hrs by agarose gel electrophoresis; format: functional, cell-based
MOLT-4 [8] = assay: Induction of apoptosis in human MOLT4 cells assessed as DNA fragmentation at 5 uM after 24 hrs by agarose gel electrophoresis; format: functional, cell-based
MOLT-4 [9] = assay: Induction of apoptosis in human MOLT4 cells assessed as DNA fragmentation at 10 uM after 24 hrs by agarose gel electrophoresis; format: functional, cell-based
MOLT-4 [10] = assay: Cell cycle arrest in human MOLT4 cells assessed as accumulation at sub G1 phase at 5 uM after 24 hrs using propidium iodide staining by flow cytometry; format: functional, cell-based
MOLT-4 [11] = assay: Cell cycle arrest in human MOLT4 cells assessed as accumulation at sub G1 phase at 10 uM after 24 hrs using propidium iodide staining by flow cytometry; format: functional, cell-based
[12] = Inhibition of DNA topoisomerase 2 assessed as inhibition of relaxation of supercoiled pBR322 plasmid DNA at 10 uM by gel electrophoresis

Row | Structure (SMILES) | IC50 (PC-3) | IC50 (HCT-15) | IC50 (A549) | IC50 (IMR-32) | IC50 (HEp-2) | IC50 (DU-145) | IC50 [1] | inhibition [2] | inhibition [3] | Activity (MOLT-4 [4]) | Activity (MOLT-4 [5]) | Activity (MOLT-4 [6]) | Activity (MOLT-4 [7]) | Activity (MOLT-4 [8]) | Activity (MOLT-4 [9]) | Activity (MOLT-4 [10]) | Activity (MOLT-4 [11]) | inhibition [12]
1 | COc1cc([C@@H]2c3cc4c(cc3[C@@H](Nc3cccc5c3Cc3ccccc3-5)[C@H]3COC(=O)[C@H]23)OCO4)cc(OC)c1O | 500 nM | 0.1 nM | 1000 nM | 10000 nM | 1000 nM | 2700 nM | 1 nM | – | – | – | – | – | – | – | – | – | – | –
2 | O=c1[nH]cc(F)c(=O)[nH]1 [FLUOROURACIL] | 12000 nM | 3600 nM | 2400 nM | 18000 nM | 300 nM | 4800 nM | 4600 nM | – | – | – | – | – | – | – | – | – | – | –
3 | COc1cc([C@@H]2c3cc4c(cc3[C@@H](Nc3ccc5ccc6cccc7ccc3c5c67)[C@H]3COC(=O)[C@H]23)OCO4)cc(OC)c1OC | 0.1 nM | 0.1 nM | 0.9 nM | – | – | – | 2 nM | Active | Active | – | – | – | – | – | – | – | – | –
4 | COc1cc([C@@H]2c3cc4c(cc3[C@@H](Nc3ccc(C(=O)c5ccc(F)cc5)cc3)[C@H]3COC(=O)[C@H]23)OCO4)cc(OC)c1OC | 6700 nM | 6200 nM | 17000 nM | 19000 nM | 7100 nM | – | 4100 nM | – | – | – | – | – | – | – | – | – | – | –
5 | COc1cc([C@@H]2c3cc4c(cc3[C@@H](Nc3cc5c6ccccc6ccc5c5ccccc35)[C@H]3COC(=O)[C@H]23)OCO4)cc(OC)c1OC | 100 nM | 2 nM | 40 nM | 3 nM | 2 nM | 2200 nM | 100 nM | Active | Active | Active | Active | Active | Active | Active | Active | Active | Active | –
6 | COc1cc([C@@H]2c3cc4c(cc3[C@@H](Nc3cccc5c3Cc3ccccc3-5)[C@H]3COC(=O)[C@H]23)OCO4)cc(OC)c1OC | 4300 nM | 90 nM | 7100 nM | 5500 nM | 3000 nM | 6600 nM | 5500 nM | – | – | – | – | – | – | – | – | – | – | –
7 | COc1cc([C@@H]2c3cc4c(cc3[C@@H](O[C@@H]3O[C@@H]5CO[C@@H](C)O[C@H]5[C@H](O)[C@H]3O)[C@H]3COC(=O)[C@H]23)OCO4)cc(OC)c1O [ETOPOSIDE] | 2600 nM | 900 nM | 3080 nM | 6300 nM | 900 nM | 3700 nM | 100 nM | – | – | – | – | – | – | – | – | – | – | Active
8 | CC[C@@]1(O)C(=O)OCc2c1cc1n(c2=O)Cc2cc3ccccc3nc2-1 [CAMPTOTHECIN] | 30 nM | 67 nM | 30 nM | 80 nM | 700 nM | 20 nM | – | – | – | – | – | – | – | – | – | Active | – | –
9 | COc1cc([C@@H]2c3cc4c(cc3[C@@H](Nc3ccc(C(=O)c5ccc(N(CCCl)CCCl)cc5)cc3)[C@H]3COC(=O)[C@H]23)OCO4)cc(OC)c1OC | 2600 nM | 900 nM | 3080 nM | 6300 nM | 900 nM | 3700 nM | 100 nM | – | – | – | – | – | – | – | – | – | – | –
10 | COc1cc([C@@H]2c3cc4c(cc3[C@@H](Nc3ccc5ccc6cccc7ccc3c5c67)[C@H]3COC(=O)[C@H]23)OCO4)cc(OC)c1O | – | 0.1 nM | 1700 nM | 200 nM | 0.2 nM | 2200 nM | 2 nM | – | – | – | – | – | – | – | – | – | – | –
11 | COc1cc([C@@H]2c3cc4c(cc3[C@@H](Nc3cccc5cc6ccccc6cc35)[C@H]3COC(=O)[C@H]23)OCO4)cc(OC)c1O | – | 8200 nM | 8300 nM | 2300 nM | 8600 nM | 18000 nM | – | – | – | – | – | – | – | – | – | – | – | –
12 | COc1cc([C@@H]2c3cc4c(cc3[C@@H](Nc3cc5c6ccccc6ccc5c5ccccc35)[C@H]3COC(=O)[C@H]23)OCO4)cc(OC)c1O | 0.3 nM | 100 nM | 0.3 nM | 1 nM | 10 nM | 0.3 nM | 100 nM | Active | Active | – | – | – | – | – | – | – | – | –
13 | COc1cc([C@@H]2c3cc4c(cc3[C@@H](Nc3ccc(C(=O)c5ccc(F)cc5)cc3)[C@H]3COC(=O)[C@H]23)OCO4)cc(OC)c1O | 6000 nM | 80 nM | 200 nM | 1300 nM | 1300 nM | 300 nM | 1400 nM | – | – | – | – | – | – | – | – | – | – | –
14 | COc1cc([C@@H]2c3cc4c(cc3[C@@H](Nc3cccc5cc6ccccc6cc35)[C@H]3COC(=O)[C@H]23)OCO4)cc(OC)c1OC | 7900 nM | 6300 nM | 8800 nM | 6700 nM | 6700 nM | 21000 nM | 9400 nM | – | – | – | – | – | – | – | – | – | – | –
